# Source: patent US20250320190A1, “Novel Inhibitors of Leucine Carboxyl Methyltransferase-1 (LCMT-1) and Methods of Use Thereof” (Temple University-Of The Commonwealth System of Higher …, priority 2024, published 2025)
# Entries after “also recorded” stand apart in the source; their conditions may differ. Read-outs that look alike come from different tables or passages of the source.
# Tests used:
# [1] = target: T1, rhLCMT-1 (Homo sapiens, UniProt Q9UIC8); assay: rhLCMT-1 activity assay (dot immunoblot); type: biochemical; settings: each inhibitor 50 μM; 20 μM SAM; 37° C. for 30 minutes
# T1 construct: purchased SignalChem (Richmond, British Columbia, Canada)
# T1 sequence (Q9UIC8 whole entry): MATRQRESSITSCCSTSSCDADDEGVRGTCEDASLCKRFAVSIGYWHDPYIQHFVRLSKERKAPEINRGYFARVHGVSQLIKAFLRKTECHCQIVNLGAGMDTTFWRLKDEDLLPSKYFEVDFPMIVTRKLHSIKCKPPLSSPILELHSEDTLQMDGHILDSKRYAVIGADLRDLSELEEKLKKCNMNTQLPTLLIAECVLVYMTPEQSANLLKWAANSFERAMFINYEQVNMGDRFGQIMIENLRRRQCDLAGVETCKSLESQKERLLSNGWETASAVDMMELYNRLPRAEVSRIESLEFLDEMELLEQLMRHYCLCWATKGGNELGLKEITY
# Method: Recombinant human LCMT-1 (rhLCMT-1) and rhPP2Ac were obtained from SignalChem (Richmond, British Columbia, Canada). Methyltransferase assays were performed with 100 ng rhLCMT-1 and 91.62 ng rhPP2Ac (2:1 molar ratio) (28) in reaction buffer containing 20 mM Tris (pH 8.0), 50 mM NaCl, 1 mM EDTA. rhLCMT-1 was incubated with Compound 1 (Chemspace, San Jose, California), Compound 2 (Akos Consulting and Solutions, Amtsgericht, Freiburg, Germany) or sinefungin, a SAM analogue, (Active Motif, Carlsbad, California), each at 50 μM final concentration, for 10 minutes at room temperature. rhPP2Ac was added to the reactions with 20 μM (final concentration) SAM (New England Biolabs, Ipswich, Massachusetts, FIG. 9). […] Reactions were incubated at 37° C. for 30 minutes (FIG. 10). Because the inhibitors gave false positive results with the secondary reactions used in colorimetric and bioluminescent methyltansferase assays, LCMT-1 activity was assessed using dot immunoblots. Reactions were applied to nitrocellulose membranes (Cytiva, Marlborough, Massachusetts). […] Membranes were treated with infrared (IR)-dye anti-mouse antibody (Li-Cor, Lincoln, Nebraska, catalog #926-32210, 1:20,000 dilution) and densities were measured with Li-Cor Image Studio (version 5.2) software. rhLCMT-1 inhibition assays were performed three times, each time with five replicates for each condition.
# [2] = system: HEK-293 cells; assay: Cytotoxicity assay (calcein-AM); type: cell-based; settings: Homo sapiens, HEK293; HEK-293; 48 hours; read-out: Log [μM] EC50 (converted)
# Method: (§1) HS-5, HEK-293, MCF7, MDA-MB-231 and Rosi cells were seeded in 96-well optical bottom tissue culture plates (Corning, New York) at a density of 2.5×10^3 cells/well. After 24 hours, the media were changed to media containing LB-100 (Cayman Chemical Company, Ann Arbor, Michigan) or Compound 2 at various concentrations (50-0.31 μM). Control cells were given fresh media. After 48 hours the media were aspirated and plates were washed with warmed Dulbecco's phosphate-buffered saline (DPBS) with calcium and magnesium (Sigma-Aldrich, catalog #D1283). Cells were stained with 3 μM calcein-AM (AAT Bioquest, Pleasanton, California, catalog #22002) in DPBS for 30 minutes in the dark at 37° C. Plates were immediately read with a Biotek fluorescent plate reader (excitation 485 nm, emission 520 nm). The cytotoxicity assays were performed at least three times, each time with six replicates per condition.
# [3] = system: HS-5 cells; assay: Cytotoxicity assay (calcein-AM); type: cell-based; settings: HS-5, 48 hours
# Method: as §1
# [4] = system: Rosi cells; assay: Annexin V assay; type: cell-based, human; settings: 5-20 μM, 48 hours
# Method: MCF7, MDA-MB-231 and Rosi cells were treated with LB-100 and Compound 2 at 5-20 μM concentrations. After 48 hours, cells were lifted with Accutase and washed twice with PBS (pH 7.4) with 10% FBS. Cells were resuspended in annexin V binding buffer (10 mM HEPES (pH 7.4), 140 mM NaCl and 2.5 mM CaCl2)) and labeled with FITC-anti-Annexin V and 7-AAD (Biolegend, FITC Annexin V Apoptosis Detection Kit with 7-AAD, catalog #640922). Cell surface annexin V expression was assessed with flow cytometry.
# [5] = Kinetic solubility; type: physicochemical; settings: 2% dimethylsulfoxide/PBS, aqueous buffer, kinetic from dmso stock; read-out: Max. Kinetic Solubility
# Source text: (§2) There is no cause for concern at this stage since there are multiple strategies and reagents for enhancing aqueous solubility for animal in vivo studies (Savjani, K. T., A. K. Gajjar and J. K. Savjani, 2012, ISRN Pharm 2012: 195727.). […] While target tissue exposure is dependent on free, unbound fractions in the plasma, plasma protein binding can protect compounds from hepatic metabolism. Thus, in vivo metabolism and excretion are often determined by a balance between these two properties. In vivo half-life is a complicated property impacted upon by multiple factors and is difficult to predict. […] While these numbers are somewhat low for a drug candidate, they are acceptable for proof of concept tool molecules which can be given multiple times per day and at higher doses to saturate metabolism.
# [6] = Liver microsomal stability; type: in vitro ADME
# Source text: as §2
# [7] = system: SCC-15 cells; assay: Cell cycle analysis (BrdU) with and without irradiation; type: cell-based, human; settings: in the presence of irradiation
# Method: (§3) Cells were treated with LCMT-li, radiotherapy or both as described for Annexin V assays. After 24 hours, cells were labeled with 50 μM bromodeoxyuridine (BrdU, BioGems, Westlake Village, California, catalog #5911439) for 4 hours. Cells were lifted with 0.25% trypsin, 2.21 mM ethylenediaminetetraacetic acid (EDTA) (Corning catalog #25-053-CI) after 4 hours and fixed with 70% ethanol overnight at −20° C. Cells were pelleted and permeabilized with 1 M HCl with 0.1% Triton X-100 for one minute. Cells were pelleted and cellular DNA was denatured with 2 M HCl. After neutralization with 1 M Tris, pH 8.5, cells were labeled with FITC-anti-BrdU (Biolegend, catalog #364104, 5 μL/100 μL cell suspension) and 7-aminoactinomycin-D (7-AAD, Biolegend, catalog #420404, 1 μL/100 μL cell suspension). Cells were washed with PBS with 10% FBS, and resuspended in PBS with 0.1% Triton X-100. Cells were analyzed with flow cytometry. Cell cycle analyses were performed twice with 12 replicates, 104 cells/replicate.
# [8] = system: SCC-25 cells; assay: as above; type: cell-based, human
# Method: as §3
# [9] = system: UM-SCC-12 cells; assay: as above; type: cell-based, human; settings: LCMT-li/irradiation combination vs irradiation alone
# Method: as §3
# [10] = system: UM-SCC-14a cells; assay: as above; type: cell-based, human; settings: combination vs irradiation alone, listed as LCMT-li
# Method: as §3
# [11] = system: UM-SCC-49 cells; assay: as above; type: cell-based, human; settings: combination vs irradiation alone
# Method: as §3
# [12] = system: UM-SCC-69 cells; assay: as above; type: cell-based, human
# Method: as §3
smiles,measurement,setting,value
"COC(=O)c1c(NC(=O)c2ccccc2C)sc(C(=O)Nc2cccc(C)c2)c1C [Compound 2, methyl 4-methyl-2-[(2-methylbenzoyl)amino]-5-[[(3-methylphenyl)amino]carbonyl]-3-thiophenecarboxylate]",methylation of rhPP2Ac by rhLCMT-1,[1],inhibited methylation of rhPP2Ac to the same degree as the SAM analogue sinefungin
same,EC50,[2],4.68 µM
same,EC50,"[3]; HS5, read-out: Log [μM] EC50 (converted)",8.71 µM
same,concentration at which cytotoxicity was significant,[3],20 µM
same,apoptosis (cell surface annexin V expression),[4],did not induce apoptosis
same,solubility kinetic,[5],18.5 µM
same,half-life,"[6]; human liver microsomes, read-out: Liver Microsomal Stability (t1/2) Human",31.1 min
same,half-life,"[6]; mouse liver microsomes, read-out: Liver Microsomal Stability (t1/2) Mouse",17.3 min
same,cell cycle effect,[7],induced G0/G1 as well as G2/M phase arrest
same,cell cycle effect,[8]; LCMT-li alone vs control cells,induced G2/M phase arrest
same,cell cycle effect,[8]; LCMT-li/irradiation combination vs irradiation alone,increased G2/M phase arrest
same,cell cycle effect,[9],increased G2/M phase arrest
same,cell cycle effect,[10],increased G0/G1 arrest; also recorded: decreased G2/M phase arrest
same,cell cycle effect,[11],decreased G2/M phase arrest
same,cell cycle effect,[12]; LCMT-li alone vs control cells,induced G0/G1 arrest
same,cell cycle effect,[12]; combination vs irradiation alone,decreased G2/M phase arrest
